According to US6358885B1, “Substituted phenylheterocyclic herbicides” (Mississippi State University, priority 1992, dated 2002):

How the values were obtained:
[1] = system: barnyardgrass; test: Test B preemergence/postemergence greenhouse plant response rating 0 to 10; type: in vivo, Echinochloa crus-galli; settings: for Plant response rating, Barnyardgrass: 0 to 10 scale
How it was run: (§1)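 Test chemicals, dissolved in a non-phytotoxic solvent, were applied to soil at planting and, at the same time, over foliage of seedlings at the one to four leaf stage.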

[2] = system: cocklebur; test: as above; type: in vivo, Xanthium pensylvanicum; settings: for Plant response rating, Cocklebur: 0 to 10 scale
How it was run: as §1

[3] = system: cotton; test: as above; type: in vivo, Gossypium hirsutum; settings: for Plant response rating, Cotton: 0 to 10 scale
How it was run: as §1

[4] = system: morningglory; test: as above; type: in vivo, Ipomoea hederacea; settings: 0 to 10 scale
How it was run: as §1

[5] = system: rice; test: as above; type: in vivo, Oryza sativa; settings: 0 to 10 scale
How it was run: as §1

[6] = system: sorghum; test: as above; type: in vivo, Sorghum bicolor; settings: 0 to 10 scale
How it was run: as §1

[7] = system: wheat; test: as above; type: in vivo, Triticum aestivum; settings: 0 to 10 scale
How it was run: as §1

[8] = system: wild oat; test: as above; type: in vivo, Avena fatua; settings: POSTEMERGENCE, 0 to 10 scale
How it was run: as §1

[9] = system: blackgrass; test: Test C preemergence/postemergence greenhouse plant response rating 0 to 100; type: in vivo, Alopecurus myosuroides; settings: POSTEMERGENCE; for Plant response rating, Blackgrass: 62 g/ha, 0 to 100 scale
How it was run: (§2)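 Compounds in non-phytotoxic solvent went onto sandy loam before emergence (seeded one day earlier) or onto plants at the one-to-four leaf stage. Duck salad was treated via flood water (~2.5 cm, maintained) over silt loam.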

[10] = system: crabgrass; test: as above; type: in vivo, Digitaria sanguinalis; settings: POSTEMERGENCE; for Plant response rating, Crabgrass: 62 g/ha, 0 to 100 scale
How it was run: as §2

[11] = system: rape; test: as above; type: in vivo, Brassica napus; settings: POSTEMERGENCE; for Plant response rating, Rape: 62 g/ha, 0 to 100 scale
How it was run: as §2

[12] = system: rice; test: Test C flood test plant response rating 0 to 100; type: in vivo, Oryza sativa; settings: for Plant response rating Rice Japonica: flood test species listed under POSTEMERGENCE, 62 g/ha, 0 to 100 scale
How it was run: (§3)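 Compounds in non-phytotoxic solvent applied preemergence to sandy loam one day after planting, postemergence at the 1–4 leaf stage, or to ~2.5 cm floodwater over silt loam.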

[13] = system: umbrella sedge; test: Test C flood test plant response rating 0 to 100; type: in vivo, Cyperus difformis; settings: for Plant response rating Umbrella sedge: flood test species listed under POSTEMERGENCE, 62 g/ha, 0 to 100 scale
How it was run: as §3

[14] = system: sandbur; test: Test G preemergence/postemergence greenhouse plant response rating 0 to 100; type: in vivo, Cenchrus echinatus; settings: 0 to 100 scale
Text: Seeds, rhizomes, or plant parts of alfalfa (Medicago ativa), annual bluegrass (Poa annua), bermudagrass (Cynodon dactylon), broadleaf signalgrass (Brachiaria plantaginea), common purslane (Portulaca oleracea), common ragweed (Ambrosia elatior), […] (Paspalum dilatatum), goosegrass (Eleusine indica), guineagrass (Panicum maximum), […] exaltata), johnsongrass (Sorghum halepense), large crabgrass (Digitaria sanguinalis), peanut (Arachis hypoagaea), pitted morningglory (Ipomoea lacunosa), purple nutsedge (Cyperus rotundus), sandbur (Cenchrus echinatus), smooth crabgrass (Digitaria ischaemum) and yellow nutsedge (Cyperus esculentus) were planted into greenhouse pots containing greenhouse planting medium. Each pot contained only one plant species. The test compound was dissolved in a non-phytotoxic solvent and applied preemergence and/or postemergence to the plants. Preemergence applications were made within one day of planting the seeds or plant parts. Postemergence applications were applied when the plants were in the two to four leaf stage (three to twenty cm). Test chemicals were dissolved in a non-phytotoxic solvent and applied preemergence and postemergence to the plants. Untreated control plants and treated plants were placed in the greenhouse and visually evaluated for injury at 13 to 21 days after herbicide application. […] A dash (-) response indicates no test result.

[15] = POSTEMERGENCE section, flood test, Rate 1 g/ha
[16] = POSTEMERGENCE section, flood test, Rate 4 g/ha
[17] = Rate 16 g/ha, under POSTEMERGENCE head (flood test species)

CC(C)N1C(=O)COc2cc(F)c(-c3nn4c(c3Cl)CCCC4)cc21 [Compound 31]
Plant response rating, Barnyardgrass ([1]; POSTEMERGENCE, Rate 10 g/ha): 4
Plant response rating (0 to 10 scale), Barnyardgrass ([1]; POSTEMERGENCE, Rate 50 g/ha): 6
Plant response rating, Barnyardgrass ([1]; PREEMERGENCE, Rate 10 g/ha): 0
Plant response rating, Barnyardgrass ([1]; PREEMERGENCE, Rate 50 g/ha): 3
Plant response rating, Cocklebur ([2]; POSTEMERGENCE, Rate 10 g/ha): 9
Plant response rating (0 to 10 scale), Cocklebur ([2]; POSTEMERGENCE, Rate 50 g/ha): 9
Plant response rating, Cocklebur ([2]; PREEMERGENCE, Rate 10 g/ha): 0
Plant response rating, Cocklebur ([2]; PREEMERGENCE, Rate 50 g/ha): 3
Plant response rating, Cotton ([3]; POSTEMERGENCE, Rate 10 g/ha): 10
Plant response rating (0 to 10 scale), Cotton ([3]; POSTEMERGENCE, Rate 50 g/ha): 10
Plant response rating, Cotton ([3]; PREEMERGENCE, Rate 10 g/ha): 0
Plant response rating, Cotton ([3]; PREEMERGENCE, Rate 50 g/ha): 0
Plant response rating, Morningglory ([4]; POSTEMERGENCE, Rate 10 g/ha): 9
Plant response rating, Morningglory ([4]; POSTEMERGENCE, Rate 50 g/ha): 10
Plant response rating, Morningglory ([4]; PREEMERGENCE, Rate 50 g/ha): 5
Plant response rating, Rice ([5]; POSTEMERGENCE, Rate 10 g/ha): 4
Plant response rating, Rice ([5]; POSTEMERGENCE, Rate 50 g/ha): 7
Plant response rating, Rice ([5]; PREEMERGENCE, Rate 50 g/ha): 0
Plant response rating, Sorghum ([6]; POSTEMERGENCE, Rate 10 g/ha): 5
Plant response rating, Sorghum ([6]; POSTEMERGENCE, Rate 50 g/ha): 4
Plant response rating, Sorghum ([6]; PREEMERGENCE, Rate 50 g/ha): 0
Plant response rating, Wheat ([7]; POSTEMERGENCE, Rate 10 g/ha): 5
Plant response rating, Wheat ([7]; POSTEMERGENCE, Rate 50 g/ha): 5
Plant response rating, Wheat ([7]; PREEMERGENCE, Rate 50 g/ha): 1
Plant response rating, Wild oat ([8]; Rate 10 g/ha): 5
Plant response rating, Wild oat ([8]; Rate 50 g/ha): 6
Plant response rating, Blackgrass [9]: 40
Plant response rating (0 to 100), Blackgrass ([9]; Rate 1 g/ha): 10
Plant response rating (0 to 100), Blackgrass ([9]; Rate 4 g/ha): 20
Plant response rating (0 to 100), Blackgrass ([9]; Rate 16 g/ha): 30
Plant response rating, Crabgrass [10]: 50
Plant response rating (0 to 100), Crabgrass ([10]; Rate 1 g/ha): 10
Plant response rating (0 to 100), Crabgrass ([10]; Rate 4 g/ha): 20
Plant response rating (0 to 100), Crabgrass ([10]; Rate 16 g/ha): 30
Plant response rating, Rape [11]: 100
Plant response rating (0 to 100), Rape ([11]; Rate 1 g/ha): 30
Plant response rating (0 to 100), Rape ([11]; Rate 4 g/ha): 60
Plant response rating (0 to 100), Rape ([11]; Rate 16 g/ha): 95
Plant response rating (0 to 100), Rice Japonica [12, 15]: 0
Plant response rating (0 to 100), Rice Japonica [12, 16]: 0
Plant response rating (0 to 100), Rice Japonica [12, 17]: 35
Plant response rating Rice Japonica [12]: 50
Plant response rating (0 to 100), Umbrella sedge [13, 15]: 0
Plant response rating (0 to 100), Umbrella sedge [13, 16]: 0
Plant response rating (0 to 100), Umbrella sedge [13, 17]: 0
Plant response rating Umbrella sedge [13]: 80
Plant response rating, S. Sandbur ([14]; POSTEMERGENCE, Rate 125 g/ha): 0
Plant response rating, S. Sandbur ([14]; POSTEMERGENCE, Rate 250 g/ha): 0
Plant response rating, S. Sandbur ([14]; PREEMERGENCE, Rate 125 g/ha): 0
Plant response rating, S. Sandbur ([14]; PREEMERGENCE, Rate 250 g/ha): 0

CCCN1C(=O)COc2cc(F)c(-c3nn4c(c3Cl)CCCC4)cc21 [Compound 32]
Plant response rating, Barnyardgrass ([1]; POSTEMERGENCE, Rate 10 g/ha): 3
Plant response rating (0 to 10 scale), Barnyardgrass ([1]; POSTEMERGENCE, Rate 50 g/ha): 5
Plant response rating, Barnyardgrass ([1]; PREEMERGENCE, Rate 10 g/ha): 0
Plant response rating, Barnyardgrass ([1]; PREEMERGENCE, Rate 50 g/ha): 1
Plant response rating, Cocklebur ([2]; POSTEMERGENCE, Rate 10 g/ha): 9
Plant response rating (0 to 10 scale), Cocklebur ([2]; POSTEMERGENCE, Rate 50 g/ha): 10
Plant response rating, Cocklebur ([2]; PREEMERGENCE, Rate 10 g/ha): 0
Plant response rating, Cocklebur ([2]; PREEMERGENCE, Rate 50 g/ha): 5
Plant response rating, Cotton ([3]; POSTEMERGENCE, Rate 10 g/ha): 10
Plant response rating (0 to 10 scale), Cotton ([3]; POSTEMERGENCE, Rate 50 g/ha): 10
Plant response rating, Cotton ([3]; PREEMERGENCE, Rate 10 g/ha): 0
Plant response rating, Cotton ([3]; PREEMERGENCE, Rate 50 g/ha): 8
Plant response rating, Morningglory ([4]; POSTEMERGENCE, Rate 10 g/ha): 10
Plant response rating, Morningglory ([4]; POSTEMERGENCE, Rate 50 g/ha): 10
Plant response rating, Morningglory ([4]; PREEMERGENCE, Rate 50 g/ha): 2
Plant response rating, Rice ([5]; POSTEMERGENCE, Rate 10 g/ha): 4
Plant response rating, Rice ([5]; POSTEMERGENCE, Rate 50 g/ha): 7
Plant response rating, Rice ([5]; PREEMERGENCE, Rate 50 g/ha): 1
Plant response rating, Sorghum ([6]; POSTEMERGENCE, Rate 10 g/ha): 6
Plant response rating, Sorghum ([6]; POSTEMERGENCE, Rate 50 g/ha): 6
Plant response rating, Sorghum ([6]; PREEMERGENCE, Rate 50 g/ha): 2
Plant response rating, Wheat ([7]; POSTEMERGENCE, Rate 10 g/ha): 5
Plant response rating, Wheat ([7]; POSTEMERGENCE, Rate 50 g/ha): 5
Plant response rating, Wheat ([7]; PREEMERGENCE, Rate 50 g/ha): 0
Plant response rating, Wild oat ([8]; Rate 10 g/ha): 4
Plant response rating, Wild oat ([8]; Rate 50 g/ha): 4
Plant response rating, Blackgrass [9]: 50
Plant response rating (0 to 100), Blackgrass ([9]; Rate 1 g/ha): 10
Plant response rating (0 to 100), Blackgrass ([9]; Rate 4 g/ha): 30
Plant response rating (0 to 100), Blackgrass ([9]; Rate 16 g/ha): 30
Plant response rating, Crabgrass [10]: 40
Plant response rating (0 to 100), Crabgrass ([10]; Rate 1 g/ha): 10
Plant response rating (0 to 100), Crabgrass ([10]; Rate 4 g/ha): 20
Plant response rating (0 to 100), Crabgrass ([10]; Rate 16 g/ha): 30
Plant response rating, Rape [11]: 100
Plant response rating (0 to 100), Rape ([11]; Rate 1 g/ha): 60
Plant response rating (0 to 100), Rape ([11]; Rate 4 g/ha): 85
Plant response rating (0 to 100), Rape ([11]; Rate 16 g/ha): 95
Plant response rating (0 to 100), Rice Japonica [12, 15]: 0
Plant response rating (0 to 100), Rice Japonica [12, 16]: 20
Plant response rating (0 to 100), Rice Japonica [12, 17]: 30
Plant response rating Rice Japonica [12]: 75
Plant response rating (0 to 100), Umbrella sedge [13, 15]: 0
Plant response rating (0 to 100), Umbrella sedge [13, 16]: 0
Plant response rating (0 to 100), Umbrella sedge [13, 17]: 20
Plant response rating Umbrella sedge [13]: 60
Plant response rating, S. Sandbur ([14]; POSTEMERGENCE, Rate 125 g/ha): 0
Plant response rating, S. Sandbur ([14]; POSTEMERGENCE, Rate 250 g/ha): 0
Plant response rating, S. Sandbur ([14]; PREEMERGENCE, Rate 125 g/ha): 0
Plant response rating, S. Sandbur ([14]; PREEMERGENCE, Rate 250 g/ha): 0
